Values of other authors as cited in patent US20070166273A1, “Skin treatment educational kit” (priority 2006, published 2007).

Experiments:
rabbits = settings: 0.5 mg/kg/day (8 times max human systemic dose)
hamsters = settings: oral
rats [1] = settings: dermal
Wistar rats [2] = tested on: Wistar rats
mice [3] = settings: 0.025 mg/kg/day topically to mice (0.1 times max human systemic dose)
mouse = settings: in vivo mouse micronucleus assay
pigmented mice = settings: 0.05% tretinoin
rats [4] = settings: oral, rats (16 times the human topical dose)
[5] = tested on: New Zealand White rabbits; settings: New Zealand White rabbits (3.3 times max human systemic dose)
hairless albino mice = settings: concurrent exposure
subhuman primates = settings: oral
[6] = Ames assay
[7] = dermally applied, 1.0 mg/kg/day (8 times max human systemic dose)
Wistar rats [8] = settings: orally or topically, Wistar rats (8 times max human systemic dose)
rats [9] = settings: oral, 2.5 mg/kg/day (20 times max human systemic dose)
CD-1 mice = settings: 91-week dermal
mice [10] = settings: oral
rats [11] = settings: oral

SMILES: CC1=C(/C=C/C(C)=C/C=C/C(C)=C/C(=O)O)C(C)(C)CCC1 [tretinoin, all-trans-retinoic acid]
- fetotoxicity and teratogenicity (rabbits; dermally applied): may be fetotoxic, but not overly teratogenic
- fetotoxicity (rabbits; topical): fetotoxic
- teratogenicity (hamsters): teratogenic
- sperm count and motility (rats [1]; 0.5 mg/kg/day, rats (4 times max human systemic dose)): slight (not statistically significant) decreases
- number and percent of nonviable embryos (rats [1]; females treated with 0.25 mg/kg/day and above (2 times max human systemic dose)): slight (not statistically significant) increases
- anomalies: humerus bent (Wistar rats [2]; 10 mg/kg/day topically applied): 6%
- anomalies: humerus short (Wistar rats [2]; 10 mg/kg/day topically applied): 13%
- anomalies: os parietal incompletely ossified (Wistar rats [2]; 10 mg/kg/day topically applied): 14%
- dose with evidence for teratogenicity (shortened or kinked tail) (Wistar rats [2]; topical, Wistar rats (8 times max human systemic dose)): greater than 1 mg/kg/day
- carcinogenic potential (mice [3]): no evidence of carcinogenic potential
- mutagenic potential (mouse): negative
- enhancement of photocarcinogenesis (pigmented mice): dark pigmentation did not overcome the enhancement of photocarcinogenesis
- dose with decreased survival of neonates and growth retardation (rats [4]): > 2 mg/kg/day
- dose with increased incidence of domed head and hydrocephaly [5]: greater than 0.2 mg/kg/day
- tumorigenic potential of carcinogenic doses of UVB and UVA light (hairless albino mice): may enhance the tumorigenic potential
- teratogenicity (subhuman primates): teratogenic
- dose with fetal malformations (cynomolgus monkey; cynomolgus monkey): ≥ 10 mg/kg/day
- embryolethality and abortion (cynomolgus monkey; cynomolgus monkey): dose-related increase
- dose at which no fetal malformations were observed (cynomolgus monkey; cynomolgus monkey (83 times max human systemic dose)): 5 mg/kg/day
- skeletal variations (cynomolgus monkey; cynomolgus monkey, all doses): increased skeletal variations were observed at all doses
- mutagenic potential [6]: negative
- reports describing holoprosencephaly (human; of the thirty human cases): five
- human cases of temporally associated congenital malformations (human; two decades of clinical use): Thirty
- fetotoxicity and teratogenicity [7]: may be fetotoxic, but not overly teratogenic
- teratogenic and fetotoxic dose (Wistar rats [8]): greater than 1 mg/kg/day
- fetotoxicity (rats [9]): fetotoxic, resulting in skeletal variations and increased intrauterine death
- cutaneous squamous cell carcinomas and papillomas in the treatment area (CD-1 mice; 0.017% and 0.035% formulations (max systemic 0.5 and 1.0 mg/kg/day), female CD-1 mice): observed in some female mice
- liver tumors (CD-1 mice; 0.017% and 0.035% formulations, male CD-1 mice): dose-related incidence
- teratogenicity (mice [10]): teratogenic
- teratogenicity (rats [11]): teratogenic
